The values that follow come from patent US11260048B2, “Compounds and compositions for inhibiting retinal pigment epithelium degeneration and methods using the same” (The Schepens Eye Research Institute, Inc., priority 2017, dated 2022).

Assay [1] concerns ARPE-19 cells. Put plainly: RPE protection assay: ox-LDL-induced cell death, LDH release. Type of assay: cell-based, Human. As to conditions: for cytotoxicity at 0.43 µM: compound 0.43 μM; for cytotoxicity at 1.4 µM: compound 1.4 μM; for protective effect against ox-LDL-induced RPE cell death: high dose 10.4 μM; for relative RPE protective activity compared with other compounds: ox-LDL 200 μg/ml (FIGS. 5, 7); for cytotoxicity at 4.3 µM: compound 4.3 μM. As for the experimental part:
FIG. 2 is a graph showing dose-dependent inhibition of ox-LDL-induced RPE death by trolox. […] Data=mean±standard error of the mean (SEM), non-linear regression (GraphPad Prism 6).
FIGS. 5B and 5C are graphs showing RPE protection by selective anti-oxidants with a hindered phenol group. ARPE-19 cells were treated with ox-LDL (200 μg/ml) with and without different concentrations of various anti-oxidants. Cell death was measured by LDH release assay. Data=mean±SEM, *P<0.05, ***P<0.001 compared to ox-LDL group, ANOVA.
FIG. 6 is a graph comparing RPE protection activity of hindered phenol-containing 2,2,5,7,8-pentamethyl-6-chromanol (PMC) and selective inhibitors of nucleotide-binding domain, leucine-rich-containing family, pyrin domain-containing-3 (NLRP3) inflammasome activation. ARPE-19 cells were treated with ox-LDL (200 μg/ml) with and without different concentrations of PMC and selective inhibitors of NLRP3 inflammasome activation, MCC950 and isoliquiritigenin. Cell death was measured by LDH release assay. Data=mean±SEM, ***P<0.001 compared to ox-LDL group, ANOVA.
FIGS. 7B and 7C are graphs that show RPE protection by different experimental analogs of trolox and BHT. ARPE-19 cells were treated with ox-LDL (200 μg/ml) with and without different concentrations of the different analogs of trolox and BHT for 48 hours, cell death was determined by LDH assay. Note that many of the compounds were able to suppress ox-LDL-induced cell death similar to PMC. Data=mean±SEM, *P<0.05, ***P<0.001 compared to ox-LDL group, ANOVA.
ARPE-19 cells: Human ARPE-19 cells (ATCC, Manassas, Va.) were propagated as described previously (Tseng, W. A., et al., Invest Ophthalmol Vis Sci, 2013. 54(1): p. 110-20). Cells were cultured in DMEMIF12 medium (Lonza, Walkersville, Md.) supplemented with 10% fetal bovine serum (FBS) (Atlanta Biologicals, Lawrenceville, Ga.), 2 mM L-glutamine (Lonza), and 100 U/ml penicillin−100 μg/ml streptomycin (Lonza) (complete media), and passaged at a ratio of 1:2 to 1:4 using trypsin-versene (Lonza). Prior to experiments, cells were maintained in 1% FBS medium for about 3 weeks to obtain ARPE-19 cells with differentiated phenotypes. The transepithelial electrical resistance (TER) of each batch of ARPE-19 cells was measured in cells cultured on laminin-coated 0.4 μm-pore transwell membranes (Corning, Mass.) to ensure it was at least 50 ohm·cm2 (EVOM2 Voltohmmeter, World Precision Instruments, Inc., Sarasota, Fla.) before the cells were used for experiments.
ARPE-19 cells were treated with ox-LDL (200 μg/ml) with and without different concentrations of the selected analogs for 48 hours, cell death was determined by LDH assay.

Another assay deals with NF-κB. Description: NF-κB activation, nuclear translocation of NF-κB p65 by immunostaining. In kind it is cell-based, Human. As to conditions: ox-LDL 200 μg/ml, trolox 10.4 μM, 36 hours (FIG. 4). As for the experimental part:
(§1) Lysosomal integrity and NF-κB activation: ARPE-19 cells were treated with ox-LDL with and without different concentrations of trolox for 36 hours. Lysosomal integrity was determined by LysoTracker staining (ThermoFisher Scientific), followed by image analysis to quantify the number of intact lysosomes per cell. […] Antibody specific for NF-κB p65 (Cell Signaling, Danvers, Mass.) was used for the immunostaining.

In assay [2] the test system is ARPE-19 cells. Put plainly: Lysosomal integrity, LysoTracker staining. In kind it is cell-based, Human. As for the experimental part: FIG. 3 is a graph showing that trolox dose-dependently suppresses ox-LDL-induced lysosomal destabilization in RPE. ARPE-19 cells were treated with ox-LDL with and without different concentrations of trolox for 36 hours. Lysosomal integrity was determined by LysoTracker staining (ThermoFisher Scientific), followed by image analysis to quantify the number of intact lysosomes per cell. […] Data=mean±SEM, *P<0.05, **P<0.01, ***P<0.001 compared to ox-LDL group, analysis of variance (ANOVA).
as §1

Assay [3] deals with ARPE-19 cells. Description: ox-LDL-induced ROS formation, ROS-ID Total ROS detection kit. The following applies: ox-LDL 200 μg/ml, 28 hours (FIG. 1).
Setting [4] is: Homo sapiens, ARPE-19, ox-LDL 200 μg/ml, 48 hours, LDH assay, read-out: Protective activity against 200 μg/ml ox-LDL (% cell death, compound concentration).

“Also recorded” adds a separate entry of the source.

Turning to `Cc1c(C)c2c(c(C)c1O)CCC(C)(C(=O)N(C)CCc1cnn(C)c1)O2` (centres unmarked) [J], in the assay on ARPE-19 cells [1] (setting [4]), the cytotoxicity at 0.43 µM is below 10%.

On to `Cc1c(C)c2c(c(C)c1O)CCC(C)(C(=O)N(C)Cc1ncon1)O2` (centres unmarked) [K], for which the cytotoxicity at 1.4 µM in the assay on ARPE-19 cells [1] (setting [4]) is below 10%. `Cc1c(C)c2c(c(C)c1O)CCC(C)(C(=O)N(C)Cc1ncc[nH]1)O2` (centres unmarked) [L]: the cytotoxicity at 1.4 µM in the assay on ARPE-19 cells [1] (setting [4]) was below 10%. As to `CC(C)(O)c1coc(S(=O)(=O)NC(=O)Nc2c3c(cc4c2CCC4)CCC3)c1` [MCC950, reference compound], in the assay with ARPE-19 cells [1] (ox-LDL 200 μg/ml (FIG. 6)), the “protective effect against ox-LDL-induced RPE cell death” value is reported as “did not have any protective effect”. With `Cc1noc(C)c1CNC(=O)C1(C)CCc2c(C)c(O)c(C)c(C)c2O1` (centres unmarked) [M], the cytotoxicity at 0.43 µM in the assay on ARPE-19 cells [1] (setting [4]) is below 10%.

Regarding `Cc1cc2n(n1)CCN(C(=O)C1(C)CCc3c(C)c(O)c(C)c(C)c3O1)C2` (centres unmarked) [N], in the assay with ARPE-19 cells [1] (setting [4]), the cytotoxicity at 1.4 µM was below 10%.

Turning to `Cc1c(C)c2c(c(C)c1O)CCC(C)(C(=O)N1CCC(c3ncc[nH]3)CC1)O2` (centres unmarked) [O], the cytotoxicity at 1.4 µM with ARPE-19 cells [1] (setting [4]) was below 10%.

With `Cc1c(C)c2c(c(C)c1O)CCC(C)(C)O2` [PMC, 2,2,5,7,8-pentamethyl-6-chromanol, reference compound], the “protection from ox-LDL-induced RPE cell death” value in the assay with ARPE-19 cells [1] (0.43 μM, ox-LDL 200 μg/ml (FIG. 6)) is above 95%. Further, in the assay on ARPE-19 cells [1], the “relative RPE protective activity compared with other compounds” value was “significantly more effective; also recorded: significantly more potent than trolox and butylated hydroxyl toluene (BHT)”.

For `CCc1cc(CN(C)C(=O)C2(C)CCc3c(C)c(O)c(C)c(C)c3O2)on1` (centres unmarked) [P], the cytotoxicity at 0.14 µM in the assay on ARPE-19 cells [1] (Homo sapiens, compound 0.14 μM, ARPE-19, ox-LDL 200 μg/ml, 48 hours, LDH assay, read-out: Protective activity against 200 μg/ml ox-LDL (% cell death, compound concentration)) was around 60%. The cytotoxicity at 0.43 µM in the assay on ARPE-19 cells [1] (setting [4]) was below 10%. Consider `Cc1c(C)c2c(c(C)c1O)CCC(C)(C(=O)NCCNS(C)(=O)=O)O2` (centres unmarked) [Q], for which, in the assay on ARPE-19 cells [1] (setting [4]), the cytotoxicity at 1.4 µM was around 50% and the cytotoxicity at 4.3 µM is below 10%. Regarding `Cc1c(C)c2c(c(C)c1O)CCC(C)(C(=O)N1CCOCC1)O2` (centres unmarked) [R], the cytotoxicity at 1.4 µM in the assay with ARPE-19 cells [1] (setting [4]) is below 10%. For the compound `Cc1c(C)c2c(c(C)c1O)CCC(C)(C(=O)NCCCn1cncn1)O2` (centres unmarked) [S], in the assay on ARPE-19 cells [1] (setting [4]), the cytotoxicity at 4.3 µM is below 10%. Consider `CCN(Cc1ccccn1)C(=O)C1(C)CCc2c(C)c(O)c(C)c(C)c2O1` (centres unmarked) [T], for which the cytotoxicity at 1.4 µM with ARPE-19 cells [1] (setting [4]) is below 10%. `Cc1c(C)c2c(c(C)c1O)CCC(C)(C(=O)N1CC(n3cccn3)C1)O2` (centres unmarked) [U]: in the assay on ARPE-19 cells [1] (setting [4]), the cytotoxicity at 1.4 µM was below 10%.

Regarding `CCN(Cc1noc(COC)n1)C(=O)C1(C)CCc2c(C)c(O)c(C)c(C)c2O1` (centres unmarked) [V], in the assay on ARPE-19 cells [1] (setting [4]), the cytotoxicity at 1.4 µM is around 30% and the cytotoxicity at 4.3 µM was below 10%.

Regarding `Cc1c(C)c2c(c(C)c1O)CCC(C)(C(=O)N(C)Cc1n[nH]c(=O)[nH]1)O2` (centres unmarked) [W], the cytotoxicity at 1.4 µM with ARPE-19 cells [1] (setting [4]) is below 12%.

As to `Cc1coc(C)c1CN(C)C(=O)C1(C)CCc2c(C)c(O)c(C)c(C)c2O1` (centres unmarked) [X], in the assay on ARPE-19 cells [1] (setting [4]), the cytotoxicity at 1.4 µM is around 22% and the cytotoxicity at 4.3 µM is below 16%. `Cc1c(C)c2c(c(C)c1O)CCC(C)(C(=O)N(C)CCCn1cccn1)O2` (centres unmarked) [Y]: in the assay with ARPE-19 cells [1] (setting [4]), the cytotoxicity at 1.4 µM was around 22% and the cytotoxicity at 4.3 µM was below 21%. For `Cc1c(C)c2c(c(C)c1O)CCC(C)(C(=O)N1CCNC(=O)C1)O2` (centres unmarked) [ZZ], in that order: around 23% and below 13%.

As to `Cc1c(C)c2c(c(C)c1O)CCC(C)(C(=O)N(C)Cc1cc[nH]n1)O2` (centres unmarked) [Z], in the assay with ARPE-19 cells [1] (setting [4]), the cytotoxicity at 1.4 µM was around 22% and the cytotoxicity at 4.3 µM is below 15%. For the compound `O=C(/C=C/c1ccc(O)cc1)c1ccc(O)cc1O` [isoliquiritigenin, reference compound], the “protective effect against ox-LDL-induced RPE cell death” value with ARPE-19 cells [1] (ox-LDL 200 μg/ml (FIG. 6)) is listed as “only protected RPE cells at high dose”.

Broadly, the EC50 is the concentration that produces a half-maximal response. For the compound `Cc1c(C)c2c(c(C)c1O)CCC(C)(C(=O)O)O2` (centres unmarked) [trolox], the EC50 with ARPE-19 cells [1] (Homo sapiens, ARPE-19, ox-LDL 200 μg/ml, 48 hours, trolox 0.65-10.4 μM, LDH release (FIG. 2), read-out: estimated EC50, suppression of ox-LDL-induced RPE death) was around 5.4 µM. Moreover, the “relative RPE protective activity compared with other compounds” value with ARPE-19 cells [1] is “significantly more effective”. Also, in the assay on NF-κB, the “NF-κB activation upon ox-LDL treatment” value was “suppressed pro-inflammatory transcription factor NF-κB activation”. Also, the “lysosomal integrity upon ox-LDL treatment” value with ARPE-19 cells [2] (ARPE-19, 36 hours (FIG. 3)) is on record as “preserved lysosomal integrity”. In addition, the “number of intact lysosomes per cell” value with ARPE-19 cells [2] (trolox 10.4 μM in the presence of ox-LDL, 36 hours) is recorded as “higher number of intact lysosomes per cell compared to control”. In addition, the “ox-LDL-induced ROS formation in RPE cells” value in the assay on ARPE-19 cells [3] was “suppressed ROS formation”.
